Measurements taken from PubChem BioAssay AID977614 (Broad Institute, 2014).
Calls of active or inactive are those of the source.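 How the source made its calls: active means parasite count per well reduced by over 3 SD from the mean, with host cell number above 80% of untreated; inactive means the rest.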

Tested on: L. donovani amastigotes in THP-1 macrophages, DAPI imaging, 72 h
Assay: L. donovani intracellular amastigote growth inhibitors, imaging, THP-1 host macrophages, single concentration (AID 977614);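 further: signal is the parasite per host cell ratio from DAPI stained kinetoplasts and nuclei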

Compound	AC50
O=C(CC(F)(F)F)N1C[C@@H]2[C@H](c3ccccc31)[C@H](CO)N2CC1CCOCC1	> 10 µM (inactive)
C[C@H]1CN([C@@H](C)CO)C(=O)CCCn2nncc2CO[C@@H]1CN(C)C(=O)Nc1ccnc(N2CCOCC2)c1	> 10 µM (inactive)
CC(=O)N1[C@H](CO)[C@@H]2c3ccccc3N(C(=O)c3ccc(F)cc3)C[C@@H]21	> 10 µM (inactive)
CCC(=O)N1[C@H](CO)[C@H](c2ccccc2)[C@H]1CN(CC)C(=O)c1cccc(F)c1	> 10 µM (inactive)
CC(=O)N1[C@@H](CO)[C@@H](c2ccccc2)[C@@H]1CNC(=O)CN1CCOCC1	> 10 µM (inactive)
CCC(=O)N1[C@H](CO)[C@@H]2c3ccccc3N(C(=O)c3cnccn3)C[C@@H]21	> 10 µM (inactive)
C[C@H](CO)N1C[C@H](C)[C@H](CN(C)C(=O)Oc2ccc3ccccc3c2)OCc2cn(nn2)CCCC1=O	> 10 µM (inactive)
C/C=C/c1ccc([C@@H]2[C@H](CO)N(C(C)=O)[C@H]2CN(CC)C(=O)CN(C)C)cc1	> 10 µM (inactive)
C[C@@H]1CN([C@H](C)CO)C(=O)CCCn2cc(nn2)CO[C@@H]1CN(C)C(=O)Nc1cccc(C(F)(F)F)c1	> 10 µM (inactive)
C[C@@H]1CN([C@H](C)CO)C(=O)CCCn2nncc2CO[C@@H]1CN(C)Cc1ccc2c(c1)OCCN2C	> 10 µM (inactive)
C[C@@H]1CN([C@H](C)CO)C(=O)CCCn2nncc2CO[C@H]1CN(C)C(=O)Nc1ccc2c(c1)OCCO2	> 10 µM (inactive)
CC(=O)N1[C@@H](CO)[C@@H]2c3ccccc3N(C(=O)c3ccc(F)cc3)C[C@@H]21	> 10 µM (inactive)
CNC[C@@H]1OCc2cnnn2CCCC(=O)N([C@@H](C)CO)C[C@@H]1C	> 10 µM (inactive)
O=C(c1ccccc1F)N1C[C@H]2[C@@H](c3ccccc31)[C@H](CO)N2Cc1ccc2c(c1)OCO2	> 10 µM (inactive)
COc1ccccc1S(=O)(=O)N(C)C[C@H]1OCc2cn(nn2)CCCC(=O)N([C@@H](C)CO)C[C@@H]1C	> 10 µM (inactive)
COCCN(C[C@@H]1[C@@H](c2ccccc2)[C@H](CO)N1C(C)=O)C(=O)c1cccnc1	> 10 µM (inactive)
C[C@@H]1CN([C@H](C)CO)C(=O)CCCn2nncc2CO[C@@H]1CN(C)C(=O)Nc1ccc2c(c1)OCCO2	> 10 µM (inactive)
C[C@H]1CN([C@@H](C)CO)C(=O)CCCn2cc(nn2)CO[C@H]1CN(C)C(=O)c1ccc(N2CCN(C)CC2)cc1	> 10 µM (inactive)
CNC[C@@H]1OCc2cnnn2CCCC(=O)N([C@@H](C)CO)C[C@H]1C	> 10 µM (inactive)
Cc1noc(C)c1S(=O)(=O)N(C)C[C@@H]1OCc2cn(nn2)CCCC(=O)N([C@H](C)CO)C[C@@H]1C	> 10 µM (inactive)
CCCNC(=O)N1C[C@H]2[C@@H](c3ccccc31)[C@H](CO)N2C(=O)CN1CCOCC1	> 10 µM (inactive)
O=C(NC[C@H]1[C@@H](c2ccccc2)[C@H](CO)N1Cc1cccnc1)c1ccccn1	> 10 µM (inactive)
C[C@H]1CN([C@@H](C)CO)C(=O)CCCn2cc(nn2)CO[C@H]1CN(C)C(=O)CCC(F)(F)F	> 10 µM (inactive)

Compound	AC50
COc1cccc(C(=O)N2C[C@H]3[C@@H](c4ccccc42)[C@H](CO)N3C(=O)c2cccc(F)c2)c1	> 10 µM (inactive)
C[C@@H]1CN([C@H](C)CO)C(=O)CCCn2nncc2CO[C@@H]1CN(C)CC1CCCCC1	> 10 µM (inactive)
CN1C[C@@H]2[C@H](c3ccccc31)[C@H](CO)N2C(=O)C1CCOCC1	> 10 µM (inactive)
C[C@@H]1CN([C@@H](C)CO)C(=O)CCCn2nncc2CO[C@@H]1CN(C)Cc1ccc2c(c1)OCCN2C	> 10 µM (inactive)
CCS(=O)(=O)N1[C@H](CO)[C@H](c2ccccc2)[C@@H]1CN(C)Cc1ccccn1	> 10 µM (inactive)
CCCNC(=O)N1[C@H](CNC(=O)c2cccc(F)c2)[C@H](c2ccccc2)[C@@H]1CO	> 10 µM (inactive)
O=C(NC[C@H]1N[C@@H](CO)[C@H]1c1ccc(-c2ccccc2F)cc1)c1ccccn1	> 10 µM (inactive)
Cc1cccc(S(=O)(=O)N2C[C@H]3[C@@H](c4ccccc42)[C@@H](CO)N3C(=O)c2ccccc2)c1	> 10 µM (inactive)
CCCNC[C@H]1[C@@H](c2ccc(-c3cccc(C#N)c3)cc2)[C@@H](CO)N1C(C)=O	> 10 µM (inactive)
CC(C)NC(=O)N1[C@@H](CO)[C@@H]2c3ccccc3N(C)C[C@@H]21	> 10 µM (inactive)
COc1ccccc1NC(=O)N1C[C@H]2[C@@H](c3ccccc31)[C@H](CO)N2C(=O)C1CCCC1	> 10 µM (inactive)
O=C(Nc1cccc(Cl)c1)N1C[C@H]2[C@@H](c3ccccc31)[C@H](CO)N2Cc1cccnc1	> 10 µM (inactive)
Cc1noc(C)c1NC(=O)N(C)C[C@@H]1OCc2cn(nn2)CCCC(=O)N([C@H](C)CO)C[C@@H]1C	> 10 µM (inactive)
O=C(c1ccncc1)N1C[C@H]2[C@@H](c3ccccc31)[C@@H](CO)N2Cc1ccccc1F	> 10 µM (inactive)
Cc1noc(C)c1NC(=O)N(C)C[C@H]1OCc2cnnn2CCCC(=O)N([C@@H](C)CO)C[C@@H]1C	> 10 µM (inactive)
C[C@@H]1CN([C@H](C)CO)C(=O)CCCn2nncc2CO[C@H]1CN(C)C(=O)Nc1ccc(-c2cccs2)cc1	> 10 µM (inactive)
COc1ccccc1-c1ccc([C@H]2[C@@H](CO)N(C(C)=O)[C@H]2CN(C)C(C)=O)cc1	> 10 µM (inactive)
COc1ccc(NC(=O)N(C)C[C@@H]2OCc3cnnn3CCCC(=O)N([C@H](C)CO)C[C@@H]2C)c(OC)c1	> 10 µM (inactive)
CCCC(=O)N1C[C@@H]2[C@H](c3ccccc31)[C@H](CO)N2Cc1cocn1	> 10 µM (inactive)
O=C(NC[C@H]1N[C@H](CO)[C@@H]1c1ccccc1)c1ccccc1F	> 10 µM (inactive)
Cc1noc(C)c1S(=O)(=O)N(C)C[C@H]1OCc2cn(nn2)CCCC(=O)N([C@H](C)CO)C[C@H]1C	> 10 µM (inactive)
O=C(Nc1ccc(F)cc1)N1[C@@H]2CNc3ccccc3[C@@H]2[C@@H]1CO	> 10 µM (inactive)
O=C(C1CCOCC1)N1C[C@@H]2[C@H](c3ccccc31)[C@@H](CO)N2C(=O)Nc1ccccc1F	> 10 µM (inactive)

Compound	AC50
O=C(NC[C@@H]1[C@@H](c2ccccc2)[C@H](CO)N1Cc1ccccn1)C1CCCC1	> 10 µM (inactive)
COCC(=O)NC[C@@H]1[C@@H](c2ccccc2)[C@H](CO)N1C(=O)c1ccccc1	> 10 µM (inactive)
Cc1noc(C)c1NC(=O)N(C)C[C@@H]1OCc2cnnn2CCCC(=O)N([C@H](C)CO)C[C@@H]1C	> 10 µM (inactive)
C/C=C/c1ccc([C@H]2[C@@H](CO)N(c3nc(C)c(C)s3)[C@@H]2CNCC(C)C)cc1	> 10 µM (inactive)
C[C@@H]1CN([C@@H](C)CO)C(=O)CCCn2cc(nn2)CO[C@@H]1CN(C)S(=O)(=O)c1cccc(C#N)c1	> 10 µM (inactive)
COc1ccc(NC(=O)N2C[C@H]3[C@@H](c4ccccc42)[C@H](CO)N3Cc2ccccn2)cc1	> 10 µM (inactive)
C[C@@H]1CN([C@H](C)CO)C(=O)CCCn2nncc2CO[C@H]1CN(C)C(=O)Nc1ccccc1C(F)(F)F	> 10 µM (inactive)
C[C@@H]1CN([C@H](C)CO)C(=O)CCCn2cc(nn2)CO[C@H]1CN(C)C(=O)Nc1cccc2ccccc12	> 10 µM (inactive)
O=C(Cc1ccccn1)N1[C@@H]2CNc3ccccc3[C@@H]2[C@@H]1CO	> 10 µM (inactive)
C[C@@H]1CN([C@H](C)CO)C(=O)CCCn2nncc2CO[C@H]1CN(C)C(=O)Oc1cccc2ccccc12	> 10 µM (inactive)
C[C@@H]1CN([C@@H](C)CO)C(=O)CCCn2nncc2CO[C@@H]1CN(C)S(=O)(=O)c1cn(C)cn1	> 10 µM (inactive)
O=C(C1CCCCC1)N1[C@H](CO)[C@@H]2c3ccccc3N(S(=O)(=O)c3ccccc3)C[C@@H]21	> 10 µM (inactive)
C[C@H]1CN([C@@H](C)CO)C(=O)CCCn2nncc2CO[C@@H]1CN(C)C(=O)Nc1ccc(-c2cccs2)cc1	> 10 µM (inactive)
CNC[C@H]1OCc2cn(nn2)CCCC(=O)N([C@@H](C)CO)C[C@H]1C	> 10 µM (inactive)
COCC(=O)N(C)C[C@H]1[C@H](c2ccccc2)[C@H](CO)N1C(=O)Cc1ccncc1	> 10 µM (inactive)
CC(=O)N1[C@H](CO)[C@H](c2ccc(C3=CCCCC3)cc2)[C@@H]1CNC(=O)CN(C)C	> 10 µM (inactive)
COc1ccc(CN2[C@H](CO)[C@@H]3c4ccccc4NC[C@@H]32)cc1	> 10 µM (inactive)
C[C@@H]1CN([C@@H](C)CO)C(=O)CCCn2nncc2CO[C@@H]1CN(C)S(=O)(=O)c1ccc2c(c1)OCCCO2	> 10 µM (inactive)
COCC(=O)N1[C@H](CO)[C@H]2c3ccccc3N(C)C[C@H]21	> 10 µM (inactive)
O=C(C1CC1)N1C[C@@H]2[C@H](c3ccccc31)[C@H](CO)N2C(=O)c1ccccc1	> 10 µM (inactive)
C[C@@H]1CN([C@H](C)CO)C(=O)CCCn2nncc2CO[C@H]1CN(C)Cc1ccc(C(=O)Nc2ccccc2N)cc1	> 10 µM (inactive)
C[C@H](CO)N1C[C@H](C)[C@@H](CN(C)C(=O)Nc2ccnc(N3CCOCC3)c2)OCc2cnnn2CCCC1=O	> 10 µM (inactive)
